Columns and labels:
[1] = system: α5 protein gene (ITGA5); test: Effect of farrerol on expression amount of α5 protein gene (real-time PCR); format: cell-based; conditions: normal human fibroblasts, 5 days
Protocol: (§1) In the normal human fibroblasts cultivated in a culture solution with or without farrerol for 5 days, the expression amounts of the integrin gene and the type-I collagen gene as a main component of dermal collagen were evaluated by the real-time PCR. The procedure followed the procedure in Example 1 except for the used primer. It should be noted that the following QuantiTect (registered trademark) Primer Assays was used as a primer. […] Specifically, the expression amount of the β1 protein gene increased by a factor of about 1.9, the expression amount of the α2 protein gene increased by a factor of about 2.6, and the expression amount of the α5 protein gene increased by a factor of about 1.7.

[2] = system: α2 protein gene (ITGA2); test: Effect of farrerol on expression amount of α2 protein gene (real-time PCR); format: cell-based; conditions: normal human fibroblasts, 5 days
Protocol: as §1

[3] = system: type-I collagen gene (COL1A1, COL1A2); test: Effect of farrerol on expression amount of type-I collagen gene (real-time PCR); format: cell-based; conditions: normal human fibroblasts, 5 days
Protocol: as §1

[4] = system: collagen fiber bundles; test: Tightness in collagen fiber bundles in collagen gel with NHDF in the presence of heparin (SEM); format: cell-based, human
[5] = system: integrin gene; test: Effect of farrerol on expression amount of integrin gene (real-time PCR); format: cell-based; conditions: normal human fibroblasts, 5 days
Protocol: as §1

[6] = system: β1 protein gene (ITGB1); test: Effect of farrerol on expression amount of β1 protein gene (real-time PCR); format: cell-based; conditions: normal human fibroblasts, 5 days
Protocol: as §1

| Molecule | increase in the expression amount of the α5 protein gene (factor) [1] | increase in the expression amount of the α2 protein gene (factor) [2] | expression amount of the type-I collagen gene [3] | effect on inhibition of tightness of collagen fiber bundles due to heparin ([4]; NHDF in collagen gel, 0.1% or 1% heparin, farrerol 10^−6% or 10^−7% at final, 5 days, SEM) | increase in the expression amount of the integrin gene (factor, with vs without farrerol) [5] [factor] | increase in the expression amount of the β1 protein gene (factor) [6] | effect on tightness in collagen fiber bundles ([4]; heparin alone) |
| --- | --- | --- | --- | --- | --- | --- | --- |
| Cc1c(O)c(C)c2c(c1O)C(=O)C[C@@H](c1ccc(O)cc1)O2 [farrerol] | about 1.7 factor | about 2.6 factor | not significantly increased | suppressed inhibition of tightness of collagen fiber bundles due to heparin | ≥ 1.5 | about 1.9 factor |  |
| Heparin |  |  |  |  |  |  | inhibitory effect |
